For data set [1], the system named is non-small cell lung cancer cell line LC-2/ad having a CCDC6-RET fusion gene. Nature of the data set: Cell growth inhibitory activity, non-small cell lung cancer cell line LC-2/ad. It is filed as cell-based. Particulars: Homo sapiens, 216 h; LC-2/ad cells, 9 days, CellTiter-Glo. Here is the method: The cell growth inhibitory activity of the test compound on the non-small cell lung cancer cell line LC-2/ad having a CCDC6-RET fusion gene (RIKEN, J Thorac Oncol. 2012 December, 7(12), 1872-6) was measured.
LC-2/ad cells were seeded on a 96-well plate at a cell density of 5,000 cells per well, and then cultured at 37° C. in the presence of 5% CO2 overnight in a medium prepared by mixing RPMI-1640 containing 15% FBS and 25 mM HEPES with Ham's F12 Mixture at a mixing ratio of 1:1. Thereafter, the test compound was diluted, and then added to the 96-well plate. As a negative control, dimethyl sulfoxide (hereinafter referred to as DMSO) was added. The obtained mixture was cultured at 37° C. in the presence of 5% CO2 for 9 days, and thereafter, a cell count measuring reagent CellTiter-Glo® Luminescent Cell Viability Assay (Promega, # G7571) was added to the culture, followed by stirring the mixture. Thereafter, using a luminescence measurement device Envision, the luminescence intensity was measured. The measurement value of a well to which only the medium had been added was define as a survival rate of 0%, and the measurement value of a well to which DMSO had been added was defined as a survival rate of 100%. The survival rate of the LC-2/ad cells in the presence of each concentration of the test compound was calculated.
In general terms: ATP-based viability assays read luminescence as a measure of living cells.

Data set [2] concerns the target RET phosphorylation of the tyrosine at position 905 (pRET(Y905)) (Homo sapiens (Human), UniProt P07949+Q16204). Nature of the data set: RET phosphorylation (Y905) in LC-2/ad xenograft tumors, Western blotting. It is filed as in vivo, NOG mice. Particulars: tumor collected two and six hours after final administration (FIG. 2). An excerpt:
(§1) Cells of a non-small cell lung cancer cell line LC-2/ad (RIKEN, J Thorac Oncol. 2012 December, 7(12), 1872-6) suspended in DPBS (Gibco, #14190) were mixed with an equal amount of Corning Matrigel Basement Membrane Matrix (Corning, #354234), and the obtained mixture was then subcutaneously transplanted into NOG mice to form a tumor. (The NOG mice were acclimatized after they had been received from In Vivo Science Inc., and thereafter, the cells were transplanted into the mice when the mice were 9 week olds. As feedstuff, FR-2 (manufactured by Funabashi Farm Co., Ltd.) was used.) After the tumor had reached a size of 100 to 200 mm^3, the mice were randomized based on tumor diameter, and oral administration of the compound of Example 4 (hereinafter referred to as Compound A) was then initiated. As a solvent for dissolving Compound A, 1% hydroxypropyl methyl cellulose was used. […] Moreover, the tumor was collected (no administration was carried out on the Vehicle group) two hours and six hours after the final administration of Compound A, and the RET phosphorylation of the tyrosine at position 905 used as an indicator of RET kinase activity (pRET(Y905), Nature Medicine, 18, 375-377 (2012)) was then detected by the Western blotting method.
(In general: A western blot detects proteins with antibodies after separation by electrophoresis.)

The test system of data set [3] is thyroid gland cancer cell line TT having RET activating mutation (C634W). Nature of the data set: Cell growth inhibitory activity, thyroid gland cancer cell line TT. Format: cell-based. As to conditions: Homo sapiens, 216 h; TT cells, 9 days, CellTiter-Glo. Here is the method: The cell growth inhibitory activity of the test compound on the thyroid gland cancer cell line TT having RET activating mutation (C634W) (Biochemical and Biophysical Research Communications. 1995 Feb. 27 (207), 1022-1028) was measured.
TT cells were seeded on a 96-well plate at a cell density of 5,000 cells per well, and were then cultured at 37° C. in the presence of 5% CO2 overnight in an F-12K nutrient mixture medium containing 10% FBS. Thereafter, the compound was diluted, and then added to the 96-well plate. As a negative control, dimethyl sulfoxide (hereinafter referred to as DMSO) was added. The obtained mixture was cultured at 37° C. in the presence of 5% CO2 for 9 days, and thereafter, a cell count measuring reagent CellTiter-Glo® Luminescent Cell Viability Assay was added to the culture, followed by stirring the mixture. Thereafter, using a luminescence measurement device Envision (Perkin Elmer), the luminescence intensity was measured. The measurement value of a well to which only the medium had been added was define as a survival rate of 0%, and the measurement value of a well to which DMSO had been added was defined as a survival rate of 100%. The survival rate of the TT cells in the presence of each concentration of the test compound was calculated.

Data set [4] has as its system non-small cell lung cancer cell line LC-2/ad xenograft. The data set can be described thus: Antitumor activity in xenograft model established with LC-2/ad. It is filed as in vivo, NOG mice. Particulars: oral.
Source text: as §1

In the next data set the target is KDR kinase (Homo sapiens (Human), UniProt P35968). Nature of the data set: Evaluation of KDR kinase inhibiting activity (cell system), HUVEC, AlphaLISA. It is filed as cell-based. Here is the method: HUVEC cells were seeded on a plate at a cell density of 1500 cells per well, and then cultured overnight. The test compound (10 uM, 2.5 uM, 625 nM, 156 nM, […], 10 nM, 2.5 nM, or 0.6 nM) was added to each well, followed by culturing the obtained mixture for 2 hours. Thereafter, VEGF165 (Peprotech, #100-20) was added to the culture at a final concentration of 50 ng/ml, and the obtained mixture was then reacted at 37° C. for 5 minutes. Thereafter, the resulting cells were lysed with 50 ul of Lysis buffer included in AlphaLISA SureFire Ultra (Perkin Elmer, # ALSU-PVGFR-A500), and Acceptor beads and Donor beads were then added to 10 ul of the cell lysate according to the instruction manual included with the aforementioned kit. The mixture thus obtained was reacted at room temperature overnight, and thereafter, a KDR kinase inhibiting activity rate was measured using Envision (Perkin Elmer).
Chain of KDR kinase (P35968 20-1356): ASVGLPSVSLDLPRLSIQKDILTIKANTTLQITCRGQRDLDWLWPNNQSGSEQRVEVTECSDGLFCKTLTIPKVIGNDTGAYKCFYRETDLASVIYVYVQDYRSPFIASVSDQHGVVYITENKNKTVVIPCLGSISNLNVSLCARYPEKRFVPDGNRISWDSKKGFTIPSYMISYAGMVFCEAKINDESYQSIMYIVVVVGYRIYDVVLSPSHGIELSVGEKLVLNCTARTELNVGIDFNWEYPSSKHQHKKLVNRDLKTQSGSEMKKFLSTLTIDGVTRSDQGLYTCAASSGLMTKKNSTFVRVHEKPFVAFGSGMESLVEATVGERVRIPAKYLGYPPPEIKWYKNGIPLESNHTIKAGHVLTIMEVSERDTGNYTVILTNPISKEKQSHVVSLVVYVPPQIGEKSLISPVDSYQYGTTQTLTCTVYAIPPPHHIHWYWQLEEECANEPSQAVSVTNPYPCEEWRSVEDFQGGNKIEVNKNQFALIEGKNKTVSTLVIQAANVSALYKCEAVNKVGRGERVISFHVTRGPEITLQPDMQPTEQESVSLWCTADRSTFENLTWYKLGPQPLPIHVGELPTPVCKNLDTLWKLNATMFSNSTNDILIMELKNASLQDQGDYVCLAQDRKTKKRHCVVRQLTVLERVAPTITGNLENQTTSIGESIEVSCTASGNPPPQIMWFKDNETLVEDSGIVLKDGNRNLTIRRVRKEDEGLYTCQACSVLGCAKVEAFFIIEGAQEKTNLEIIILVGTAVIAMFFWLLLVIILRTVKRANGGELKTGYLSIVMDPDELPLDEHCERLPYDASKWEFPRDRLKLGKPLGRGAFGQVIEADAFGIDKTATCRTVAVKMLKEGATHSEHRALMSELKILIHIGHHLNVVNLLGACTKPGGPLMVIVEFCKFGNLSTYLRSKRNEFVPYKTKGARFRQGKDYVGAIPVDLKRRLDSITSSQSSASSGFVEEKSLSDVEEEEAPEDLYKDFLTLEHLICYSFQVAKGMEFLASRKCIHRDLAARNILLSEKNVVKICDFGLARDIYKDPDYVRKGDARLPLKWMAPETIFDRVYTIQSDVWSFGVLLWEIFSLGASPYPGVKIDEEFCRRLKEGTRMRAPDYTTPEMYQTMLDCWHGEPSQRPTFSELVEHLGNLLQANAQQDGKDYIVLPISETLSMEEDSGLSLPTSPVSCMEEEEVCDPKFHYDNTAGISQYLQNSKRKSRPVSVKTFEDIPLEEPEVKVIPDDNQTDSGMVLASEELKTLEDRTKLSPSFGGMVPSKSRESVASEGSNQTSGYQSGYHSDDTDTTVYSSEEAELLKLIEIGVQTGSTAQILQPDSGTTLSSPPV
The value for a well to which only the Lysis buffer had been added was subtracted as a background from all of the values. Thereafter, the value for a well to which […] had been added and the test compound had not been added was defined as a KDR kinase activity of 100%, and the obtained value was corrected.

Molecules are shown by their SMILES. Read-outs that look alike come from different tables or passages of the source.

Chain of RET phosphorylation of the tyrosine at position 905 (pRET(Y905)) (P07949 other isoform, or with tags, fused parts or gaps): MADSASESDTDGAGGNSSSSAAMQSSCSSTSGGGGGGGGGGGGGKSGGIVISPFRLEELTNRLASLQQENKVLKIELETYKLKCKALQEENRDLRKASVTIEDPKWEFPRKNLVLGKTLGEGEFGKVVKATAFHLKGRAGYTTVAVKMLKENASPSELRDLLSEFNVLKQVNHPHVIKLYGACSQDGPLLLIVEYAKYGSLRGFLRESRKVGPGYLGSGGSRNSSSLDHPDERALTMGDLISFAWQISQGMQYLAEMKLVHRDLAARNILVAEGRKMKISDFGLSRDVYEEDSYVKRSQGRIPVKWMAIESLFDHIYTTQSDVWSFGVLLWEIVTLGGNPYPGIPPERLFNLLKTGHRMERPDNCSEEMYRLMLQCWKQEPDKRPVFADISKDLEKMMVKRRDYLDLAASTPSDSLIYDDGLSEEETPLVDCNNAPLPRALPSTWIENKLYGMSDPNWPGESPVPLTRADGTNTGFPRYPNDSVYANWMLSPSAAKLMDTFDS

For the compound `COc1cc2cc(-c3ccc(CC(=O)Nc4cc(C(C)(C)C(F)(F)F)no4)cn3)cnc2cc1OC` [Example 4, 2-[6-(6,7-Dimethoxyquinolin-3-yl)pyridin-3-yl]-N-[3-(1,1,1-trifluoro-2-methylpropan-2-yl)-1,2-oxazol-5-yl]acetamide Methanesulfonate], the IC50 (in general, the concentration needed to halve the response being measured) came to 49 nM in data set [1]; 6 nM in data set [3]; 298 nM on KDR kinase (KDR, HUVEC cells, VEGF165 50 ng/ml, compound 2 hours, read-out: IC50); 287 nM on KDR kinase (cell system, Form: Mesylate, read-out: IC50 (nM) KDR). Besides, the “suppression of the phosphorylation of Y905 (pRET(Y905))” value in data set [2] is “dose-dependent suppression of the phosphorylation of Y905”. Moreover, the tumor regression result in data set [4] (3 mg/kg or 1 mg/kg three times a day for 9 days (FIG. 1)) is recorded as “dose-dependent tumor regression”. Further, the “reduction in body weight” value in data set [4] (3 mg/kg or 1 mg/kg three times a day for 9 days, compared to Vehicle group) is reported as “no significant reduction in body weight”.
